Source: article PMC6272341, “Synthesis and Biological Evaluation of N-Alkoxyphenyl-3-hydroxynaphthalene-2-carboxanilides” (Molecules, 2015)
In brackets after ≈: the same amount, converted by molar mass. Like-named read-outs stand apart in the source and are kept apart here.

How the values were obtained:
[1] = test system: M. tuberculosis H37Ra ATCC 25177; assay: In vitro antimycobacterial evaluation, alamarBlue (MIC); assay type: cell-based; conditions: Mycobacterium tuberculosis, 168 h, read-out: MIC MT
Protocol: The evaluation of the in vitro antimycobacterial activity of the compounds was performed against M. tuberculosis H37Ra ATCC 25177 [25] and clinical isolate of M. avium subsp. paratuberculosis CIT03 [26], see Table 1. The activity of compounds was expressed as the minimum inhibitory concentration (MIC) that is defined for mycobacteria as a 90% or greater (IC90) reduction of growth in comparison with the control. The MIC/IC90 value is routinely and widely used in bacterial assays, being a standard detection limit according to the Clinical and Laboratory Standards Institute.
Mycobacterium tuberculosis H37Ra ATCC 25177 and well characterised clinical isolate M. avium subsp. paratuberculosis CIT03 were grown in Middlebrook broth (MB), supplemented with Oleic-Albumin-Dextrose-Catalase supplement (Becton Dickinson, Oxford, UK) and mycobactin J (2 μg/mL). Identification of these isolates was performed using biochemical and molecular protocols. At log phase growth, a culture sample (10 mL) was centrifuged at 15,000 rpm/20 min using a bench top centrifuge (Model CR 4-12, Jouan Inc., Winchester, VA, USA). Following removal of the supernatant, the pellet was washed in fresh Middlebrook 7H9GC broth and re-suspended in fresh supplemented MB (10 mL). The turbidity was adjusted to match McFarland standard No. 1 (3 × 10^8 cfu) with MB broth. A further 1:20 dilution of the culture was then performed in MB broth. The antimicrobial susceptibility of all three mycobacterial species was investigated in a 96-well plate format. In these experiments, sterile deionised water (300 µL) was added to all outer-perimeter wells of the plates to minimize evaporation of the medium in the test wells during incubation. Sample wells were composed of 100 µL of test compound dilution and 100 µL of the bacterial stock being tested against. Dilutions of each compound were prepared in duplicate. For all synthesized compounds, final concentrations ranged from 1000 μg/mL to 8 μg/mL. All compounds were prepared in DMSO and subsequent dilutions were made in supplemented MB. The plates were sealed with parafilm and incubated at 37 °C, for 7 days in the case of M. tuberculosis and 11 days in the case of M. avium subsp. paratuberculosis. Following incubation, a 10% addition of alamarBlue (AbD Serotec, Kidlington, UK) was mixed into each well and readings at 570 nm and 600 nm were taken, initially for background subtraction and subsequently after 24 h re-incubation. The background subtraction is necessary for strongly coloured compounds, where the colour may interfere with the interpretation of any colour change. For non-interfering compounds, a blue colour in the well was interpreted as an absence of growth and a pink colour was scored as growth. […] The MIC value is routinely and widely used in bacterial assays and is a standard detection limit according to the Clinical and Laboratory Standards Institute (CLSI,). Rifampicin (Sigma-Aldrich) was used as the standard as it is clinically used antimycobacterial drugs.

[2] = test system: clinical isolate of M. avium subsp. paratuberculosis CIT03; assay: as above; assay type: cell-based; conditions: Mycobacterium avium, 264 h, read-out: MIC MAP
[3] = test system: M. tuberculosis H37Ra ATCC 25177; assay: MTT assay of mycobacterial viability; assay type: cell-based; conditions: Mycobacterium tuberculosis, 168 h; at the lowest tested concentration 8 µg/mL, ca. 24 µM; 7 days
Protocol: The MTT assay is a well-characterized method of assessing cell growth through measurement of respiration. For the purpose of this assay, an MTT measured viability of M. tuberculosis H37Ra of less than 70% after exposure to the MIC of each tested compound was considered a positive result.
For the MTT assay, the outer wells of a 96-well plate were filled with 200 µL of sterile water, and the inner wells were filled with 100 µL of the tested compound at the concentration to be examined. Compounds were prepared as previously stated and diluted in Middlebrook media to achieve the desired concentration. Mycobacterium tuberculosis H37Ra ATCC 25177 was suspended in ODAC supplemented Middlebrook broth at a MacFarland standard of 1.0 and then diluted through a 1:20, using Middlebrook broth as a diluent. The diluted mycobacteria (100 µL) were added to each well containing the compound to be tested. A negative growth control was composed of 100 µL of DMSO and 100 µL of media, and the diluted mycobacteria in broth absent of inhibiting compounds were used as a positive growth control. All compounds and controls were prepared in triplicate. Plates were incubated at 37 °C for 7 days. After the incubation period, 10% well volume of MTT reagent was mixed into each well and incubated at 37 °C for 24 h. The reagent and media were then aspirated from the wells, to which 50 µL 99% isopropanol was then added, and plates were read at 570 nm. The absorbance readings from the cells, grown in the presence of the tested compounds, were compared with uninhibited cell growth (using DMSO as the blank) to determine the relative percent viability. The percent viability was determined through the MTT assay. The percent viability is calculated through comparison of a measured value against that of the uninhibited control: %viability = OD570E/OD570P × 100, where OD570E is the reading from the compound-exposed cells, while OD570P is the reading from the uninhibited cells (positive control). Cytotoxic potential is determined by a percent viability of <70%.

[4] = test system: photosynthetic electron transport in spinach chloroplasts; assay: Inhibition of photosynthetic electron transport (PET), DCPIP photoreduction (Hill reaction); assay type: biochemical, spinach (Spinacia oleracea L.)
Protocol: The PET inhibiting activity of the compounds was expressed by IC50 values. […] The aqueous solubility of the para-substituted compounds was limited; therefore IC50 values could not be determined due to precipitation of compounds during experiment. […]
Chloroplasts were prepared from spinach (Spinacia oleracea L.) according to Masarovicova and Kralova. The inhibition of photosynthetic electron transport (PET) in spinach chloroplasts was determined spectrophotometrically (Genesys 6, Thermo Scientific Corporation), using an artificial electron acceptor 2,6-dichlorophenol-indophenol (DCPIP) according to Kralova et al., and the rate of photosynthetic electron transport was monitored as a photoreduction of DCPIP. The measurements were carried out in phosphate buffer (20.0 mM, pH 7.2) containing sucrose (0.4 M), MgCl2 (5.0 mM) and NaCl (15.0 mM). The chlorophyll content was 30 mg/L in these experiments and the samples were irradiated (~100 W/m^2 with 10 cm distance) with a halogen lamp (250 W) using a 4 cm water filter to prevent warming of the samples (suspension temperature 22 °C). The studied compounds were dissolved in DMSO due to their limited aqueous solubility. The applied DMSO concentration (up to 4%) had negligible effect on the photochemical activity in isolated spinach chloroplasts (observed differences in DCPIP photoreduction due DMSO addition were within experimental error). The inhibitory efficiency of the studied compounds was expressed by IC50 values, i.e., by molar concentration of the compounds causing 50% decrease in DCPIP photoreduction relative to the untreated control. […] All reagents used in this study were of analytical grade and were purchased from Sigma.

[5] = test system: S. aureus ATCC 29213; assay: In vitro antibacterial susceptibility testing, broth dilution micro-method (MIC); conditions: Staphylococcus aureus, ATCC29213, 24 h, read-out: MIC SA
[6] = test system: methicillin-resistant S. aureus clinical isolate MRSA 63718; assay: as above; conditions: for MIC: Staphylococcus aureus, MRSA, read-out: MIC MRSA 63718, clinical isolate MRSA 63718
[7] = test system: methicillin-resistant S. aureus clinical isolate SA 630; assay: as above; conditions: 24 h; for MIC: Staphylococcus aureus, MRSA, read-out: MIC MRSA SA 630, clinical isolate MRSA SA 630, 37 °C, MH broth
[8] = test system: methicillin-resistant S. aureus clinical isolate SA 3202; assay: as above; conditions: 24 h; for MIC: Staphylococcus aureus, MRSA, read-out: MIC MRSA 3202, clinical isolate MRSA 3202, 37 °C, MH broth
[9] = test system: human monocytic leukemia THP-1 cells; conditions: 24 h
[10] = test system: Chla-protein complexes of photosystem II in spinach chloroplasts; assay: Chlorophyll a fluorescence emission spectra in spinach chloroplasts; assay type: biochemical, spinach (Spinacia oleracea L.); conditions: 0, 102, 204, 408 and 612 μM; λex = 436 nm; band at 686 nm
Text: The studied compounds affected chlorophyll a (Chla) fluorescence in spinach chloroplasts indicating their interactions with constituents of photosynthetic apparatus. […] The extent of perturbation of Chla-protein complexes in the thylakoid membrane is reflected in the sharpness of decreased fluorescence of Chla pigment. A similar decrease of Chla fluorescence in plant chloroplasts was also observed previously after treatment with ring-substituted 1-hydroxynaphthalene-2-carboxanilides, 2-hydroxynaphthalene-1-carboxanilides, 5-bromo- and 3,5-dibromo-2-hydroxy-N-phenyl-benzamides and ring-substituted 4-arylamino-7-chloroquinolinium chlorides.
The emission fluorescence spectra were recorded on a fluorescence spectrophotometer F-2000 (Hitachi, Tokyo, Japan) at room temperature (24 °C). The samples of chloroplast suspension (10 mg chlorophyll/L) with and without the studied inhibitor were excited at 436 nm, using an excitation slit 20 nm and emission slit 10 nm, and were kept in the dark for 2 min prior to the measurement. Due to low aqueous solubility the compounds were added to a chloroplast suspension in DMSO solution. The DMSO concentration in all samples was the same as in the control (10%).

[11] = M. tuberculosis H37Ra, 7 days, 37 °C, alamarBlue, MIC/IC90
[12] = M. avium subsp. paratuberculosis CIT03, 11 days, 37 °C, alamarBlue, MIC/IC90

SMILES | MIC [1, 11] [µM] | MIC [2, 12] [µM] | viability at 8 µg/mL [3] [%] | IC50 [4] [µM] | MIC [5] [µM] | MIC ([6]; 24 h, 24 h, 37 °C, MH broth) [µM] | activity fold higher than that of ampicillin ([6]; antibacterial activity against MRSA strains versus ampicillin) [fold] | MIC MRSA 63718 ([6]; clinical isolate MRSA 63718, 24 h, 37 °C, MH broth) [µM] | MIC [7] [µM] | MIC MRSA SA 630 ([7]; clinical isolate MRSA SA 630, 37 °C, MH broth) [µM] | MIC [8] [µM] | MIC MRSA 3202 ([8]; clinical isolate MRSA 3202, 37 °C, MH broth) [µM] | MIC [1] [µM] | LD50 [9] [µM] | MIC [2] [µM] | chlorophyll a fluorescence emission [10]
CCC(C)Oc1ccccc1NC(=O)c1cc2ccccc2cc1O (stereo not drawn) [Compound 8a, N-[2-(But-2-yloxy)phenyl]-3-hydroxynaphthalene-2-carboxamide] | 23 (≈ 7.71 µg/mL) | 89 (≈ 29.9 µg/mL) | 23.9 | 134 | 5.9 (≈ 1.98 µg/mL) | 12 (≈ 4.02 µg/mL) | ~4 | 11.9 (≈ 3.99 µg/mL) | 12 (≈ 4.02 µg/mL) | 11.9 (≈ 3.99 µg/mL) | 12 (≈ 4.02 µg/mL) | 11.9 (≈ 3.99 µg/mL) |  |  |  | 
CC(C)Oc1cccc(NC(=O)c2cc3ccccc3cc2O)c1 [Compound 7b, 3-Hydroxy-N-[3-(prop-2-yloxy)phenyl]naphthalene-2-carboxamide] |  | 778 (≈ 250 µg/mL) | 10.7 | 6.9 | 796 (≈ 256 µg/mL) | 796 (≈ 256 µg/mL) |  |  | 796 (≈ 256 µg/mL) |  | 796 (≈ 256 µg/mL) |  | 24 (≈ 7.71 µg/mL) |  |  | 
CCC(C)Oc1cccc(NC(=O)c2cc3ccccc3cc2O)c1 (stereo not drawn) [Compound 8b, N-[3-(But-2-yloxy)phenyl]-3-hydroxynaphthalene-2-carboxamide] | 23 (≈ 7.71 µg/mL) | 745 (≈ 250 µg/mL) | 21.7 | 8.3 | 763 (≈ 256 µg/mL) | 763 (≈ 256 µg/mL) |  |  | 763 (≈ 256 µg/mL) |  | 763 (≈ 256 µg/mL) |  |  | 2.7 ± 0.7 |  | 
CCOc1cccc(NC(=O)c2cc3ccccc3cc2O)c1 [Compound 4b, N-(3-Ethoxyphenyl)-3-hydroxynaphthalene-2-carboxamide] | 813 (≈ 250 µg/mL) |  |  | 4.5 | 832 (≈ 256 µg/mL) | 832 (≈ 256 µg/mL) |  |  | 832 (≈ 256 µg/mL) |  | 832 (≈ 256 µg/mL) |  |  |  | 813 (≈ 250 µg/mL) | decreased intensity of the emission band at 686 nm
COc1cccc(NC(=O)c2cc3ccccc3cc2O)c1 [Compound 3b, 3-hydroxy-N-(3-methoxyphenyl)naphthalene-2-carboxamide] | 51 (≈ 15 µg/mL) | 426 (≈ 125 µg/mL) |  | 53.4 | 873 (≈ 256 µg/mL) | 873 (≈ 256 µg/mL) |  |  | 873 (≈ 256 µg/mL) |  | 873 (≈ 256 µg/mL) |  |  | >30 |  | 
